Data published in PMC11672801, “Synthesis of Temporin-SHa Retro Analogs with Lysine Addition/Substitution and Antibiotic Conjugation to Enhance Antibacterial, Antifungal, and Anticancer Activities” (Antibiotics, 2024).
pIC50: −log10 of the molar value. ≈ marks a conversion by molar mass, not a printed value. Read-outs that look alike come from different tables or passages of the source. Where a SMILES comes first, the peptide text is derived from it. [ ]: non-standard residue; d: D form. The star is where a group is joined. Levofloxacinoyl = C[C@H]1COc2c(N3CCN(C)CC3)c(F)cc3c(=O)c(C(=O)*)cn1c23; βAla = NCCC(=O)O

Experiments:
B. subtilis (ATCC 23857) = test: Antibacterial broth microdilution MIC assay; assay type: cell-based, Bacillus subtilis; conditions: >99% inhibition of growth, MH broth, 20-22 h, 37 °C
Experimental: (§1) The antibacterial activity of peptide analogs was tested against different bacterial strains, i.e., Salmonella enterica subsp. enterica serotype Typhimurium or Salmonella typhi (ATCC 14028), Staphylococcus aureus (NCTC 13277), Bacillus subtilis (ATCC 23857), Escherichia coli (ATCC 25922), and Pseudomonas aeruginosa (ATCC 10145). These strains were obtained from the microbial bank of Dr. Panjwani Center for Molecular Medicine and Drug research (PCMD), International Center for Chemical and Biological Sciences (ICCBS), University of Karachi. Colonies of these bacterial strains were grown in respective agar media, then inoculated in Mueller Hinton (MH) broth (Oxoid, UK) and incubated at 37 °C overnight. The peptide solutions were first diluted 1 in 100 (from the stock solution at 20 mM) and then further two-fold dilution in MH broth in a sterile 96-well plate was performed, resulting in 100 µL of broth containing increasing concentrations of analogs. Bacteria in their exponential growth phase were diluted in MH broth, and 100 µL of this suspension was added in each well. […] Then, these plates were incubated at 37 °C for 20–22 h. MIC (Minimum Inhibitory Concentration) values were determined as the concentrations of peptides causing >99% inhibition of bacterial growth.

S. aureus (NCTC 13277) = conditions: >99% inhibition of growth, MH broth, 20-22 h, 37 °C
E. coli (ATCC 25922) = test: Antibacterial broth microdilution MIC assay; assay type: cell-based, Escherichia coli; conditions: >99% inhibition of growth, MH broth, 20-22 h, 37 °C
Experimental: as §1

C. albicans (ATCC 36082) = test: microbe, parasite or virus in culture
Experimental: Candida albicans (ATCC 36082) was cultured on Sabourad Dextrose Agar (SDA). A single colony was inoculated in Sabouraud Dextrose Broth (SDB) medium and grown overnight at 37 °C while shaking. The next day, the susceptibility of C. albicans was tested using a broth microdilution assay. Peptide analogs were diluted in SDB media by two-fold dilution, resulting in 100 µL of medium containing increasing concentrations of analogs. The overnight culture (turbidity at OD600 = 1) was 1000× diluted in SDB. Then 100 µL of this suspension was added to each well, resulting in a final 200 µL suspension containing 2–4 × 10^5 CFU/mL. The plate was incubated at 37 °C for 24 h. The next day, MIC (Minimum Inhibitory Concentration) values were determined as the concentrations of peptides causing > 99% inhibition of yeast growth.

[1] = test system: cancer cells (MCF-7, HeLa); design: species or system human
Experimental: The selectivity of action of the analogs against micro-organisms or cancer cells was further evaluated through calculation of their selectivity indexes (SIs). SIs were determined using either the MIC on micro-organisms or IC50 on cancer cells compared to HC50 values, and they are reported in Table 6.

[2] = test system: P. aeruginosa (ATCC 10145); test: Antibacterial broth microdilution MIC assay; assay type: cell-based, Pseudomonas aeruginosa; conditions: >99% inhibition of growth, MH broth, 20-22 h, 37 °C
Experimental: as §1

[3] = test system: human red blood cells (RBC); test: Hemolytic assay; assay type: cell-based
Experimental: For the hemolytic assay, fresh human blood (2 mL) was obtained from a healthy donor in EDTA tube while following the protocol of approval from the Independent Ethics Committee of ICCBS (approval number ICCBS/IEC-047-HB-2019/Protocol/1.0). The blood was centrifuged and upper supernatant plasma was removed. The cell pellets were washed with sterile PBS three times. The washed blood cells were then diluted 25 times to make 4% concentration of the initial blood cells. Red blood cells (500 µL) were treated with increasing concentrations of analogs, with triton X-100 at 0.1% being used as positive control giving 100% hemolysis. After 1 h of incubation at 37 °C, tubes were centrifuged at 800 rpm for 5 min to pellet down red blood cells. After centrifugation, 200 µL of supernatant were transferred into a 96 well plate and the absorbance was recorded at 576 nm using a microplate reader (MultiSkan Go, ThermoScientific). Then, the following formula was applied to calculate percent hemolysis: % Hemolysis=O.D of test sample−O.D of PBS control/O.D of Tritox×positive control−O.D of PBS control×100

[4] = test system: Human breast cancer (MCF-7) cells; test: cells; assay type: cell-based
Experimental: (§2) Human breast cancer (MCF-7) and human cervical cancer (HeLa) cells were obtained from the cell culture bank of PCMD in ICCBS, University of Karachi. These cells were maintained in Dulbecco’s Modified Eagle Medium (DMEM), supplemented with 10% fetal bovine serum, and incubated at 37 °C and 5% CO2. The antiproliferative activity of the samples was determined by a MTT assay. Briefly, the cells were washed with PBS and trypsinized. After determination of the cell number using Malassez cell counting, 100 µL of the cell suspension were seeded in a 96-well plate at the density of 6000 cells/well and incubated at 37 °C and 5% CO2. After 24 h, the cells were treated with increasing concentrations of analogs. The next day, media was removed and 200 µL of MTT dye (0.5 mg/mL) was added in each well and incubated for 3 h at 37 °C in 5% CO2 incubator. Then, the media was removed and 100 µL of DMSO was added to solubilize formazan crystals. After one minute of shaking, the absorbance was recorded at 540 nm in microplate reader (Multiskan GO, ThermoScientific, Waltham, MA, USA). Finally, the percent inhibition of proliferation was calculated using the following formula: % inhibition of proliferation=O.D of treated well−O.D of media control/O.D of untreated control−O.D of media control×100

[5] = test system: human cervical cancer (HeLa) cells; test: cells; assay type: cell-based; conditions: 24 h
Experimental: as §2

[6] = Circular dichroism secondary structure analysis (Bestsel) in 20 mM SDS; assay type: physicochemical; conditions: CD, 15 µM peptide in 20 mM SDS, 22 °C
Experimental: The far-ultraviolet circular dichroism (CD) spectra were recorded using a JASCO J-810 spectropolarimeter (Jasco, Tokyo, Japan), with measurements taken in a quartz cuvette with a 10 mm path length. The temperature was kept at 22 °C, and the instrument was calibrated with D-(+)-10-camphorsulfonic acid. Peptides were dissolved in 20 mM SDS to a final concentration of 15 µM. The CD spectra were collected over a wavelength range of 190 to 260 nm with a bandwidth of 2 nm. Each spectrum was recorded with ten consecutive scans at a rate of 50 nm/min, and the baseline was obtained under identical conditions. Secondary structures, i.e., the percentage of alpha-helix and other secondary structures, were quantified from CD data using Bestsel software (https://bestsel.elte.hu/index.php, accessed on 22 October 2024).

[7] = >99% inhibition of yeast growth, SDB, 24 h, 37 °C
[8] = >99% inhibition of growth, MH broth, 20-22 h, 37 °C
[9] = MTT, 24 h exposure, read-out: IC50 on Breast Cancer (MCF-7)

SMILES	MIC (B. subtilis (ATCC 23857))	MIC S. aureus (NCTC 13277) (S. aureus (NCTC 13277))	MIC S. typhi (ATCC 14028) (S. typhi (ATCC 14028); ATCC 14028)	MIC (E. coli (ATCC 25922))	MIC C. albicans (ATCC 36082) (C. albicans (ATCC 36082); ATCC 36082, 24 h)	pIC50 [1]	MIC [2]	HC50 on Human Red Blood Cells (RBCs) [3]	HC50 on Human Red Blood Cells (RBCs) ([3]; red cells of human, 1 h)	pIC50 ([4]; 24 h)	pIC50 [5]	MIC C. albicans (ATCC 36082) (C. albicans (ATCC 36082); [7])	Antiparallel (%) [6]	Helix (%) [6]	Others (%) [6]	Parallel (%) [6]	Turn (%) [6]	MIC S. typhi (ATCC 14028) (S. typhi (ATCC 14028); [8])	pIC50 [4, 9]
CC[C@H](C)[C@H](NC(=O)[C@@H](NC(=O)CNC(=O)[C@H](CCSC)NC(=O)[C@H](CC(C)C)NC(=O)CNC(=O)[C@H](CCCCN)NC(=O)[C@H](CC(C)C)NC(=O)[C@@H](N)Cc1ccccc1)C(C)C)C(=O)N[C@H](C)C(=O)N[C@@H](CO)C(=O)N[C@@H](CC(C)C)C(=O)N[C@@H](Cc1ccccc1)C(=O)N[C@@H](CCCCNC(=O)c1cn2c3c(c(N4CCN(C)CC4)c(F)cc3c1=O)OC[C@@H]2C)C(N)=O [RLFP-1 (4), H-Phe^1-Leu^2-Lys^3-Gly^4-Leu^5-Met^6-Gly^7-Val^8-Ile^9-D-Ala^10-Ser^11-Leu^12-Phe^13-Lys^14(LF)-NH2] (H-FLKGLMGVI[dA]SLFK(Levofloxacinoyl)-NH2)	50 µM (≈ 93.3 µg/mL)	50 µM (≈ 93.3 µg/mL)	25 µM (≈ 46.7 µg/mL)	>200 µM	>250 µM	< 4.00	>200 µM	98.6 µM	98.9 µM	< 4.00	< 4.00	–	–	–	–	–	–	–	–
CC[C@H](C)[C@H](NC(=O)[C@@H](NC(=O)CNC(=O)[C@H](CCSC)NC(=O)[C@H](CC(C)C)NC(=O)CNC(=O)[C@H](CCCCN)NC(=O)[C@H](CC(C)C)NC(=O)[C@H](Cc1ccccc1)NC(=O)CCNC(=O)c1cn2c3c(c(N4CCN(C)CC4)c(F)cc3c1=O)OC[C@@H]2C)C(C)C)C(=O)N[C@H](C)C(=O)N[C@@H](CO)C(=O)N[C@@H](CC(C)C)C(=O)N[C@@H](Cc1ccccc1)C(=O)N[C@@H](CCCCN)C(N)=O [RLFP-3 (6), LF-β-Ala-Phe^1-Leu^2-Lys^3-Gly^4-Leu^5-Met^6-Gly^7-Val^8-Ile^9-D-Ala^10-Ser^11-Leu^12-Phe^13-Lys^14-NH2] ({Levofloxacinoyl-βAla}-FLKGLMGVI[dA]SLFK-NH2)	1.56 µM (≈ 3.02 µg/mL)	12.5 µM (≈ 24.2 µg/mL)	3.12 µM (≈ 6.04 µg/mL)	25 µM (≈ 48.4 µg/mL)	–	–	12.5 µM (≈ 24.2 µg/mL)	–	6.6 µM	4.88	4.92	3.12 µM (≈ 6.04 µg/mL)	–	–	–	–	–	–	–
CC[C@H](C)[C@H](NC(=O)[C@@H](NC(=O)CNC(=O)[C@H](CCSC)NC(=O)[C@H](CC(C)C)NC(=O)[C@H](CCCCN)NC(=O)[C@H](CCCCN)NC(=O)[C@H](CC(C)C)NC(=O)[C@H](Cc1ccccc1)NC(=O)CCNC(=O)c1cn2c3c(c(N4CCN(C)CC4)c(F)cc3c1=O)OC[C@@H]2C)C(C)C)C(=O)N[C@H](C)C(=O)N[C@@H](CO)C(=O)N[C@@H](CC(C)C)C(=O)N[C@@H](Cc1ccccc1)C(N)=O [RLFP-4 (8), LF-β-Ala-Phe^1-Leu^2-Lys^3-Lys^4-Leu^5-Met^6-Gly^7-Val^8-Ile^9-D-Ala^10-Ser^11-Leu^12-Phe^13-NH2] ({Levofloxacinoyl-βAla}-FLKKLMGVI[dA]SLF-NH2)	1.56 µM (≈ 2.93 µg/mL)	6.25 µM (≈ 11.8 µg/mL)	50 µM (≈ 94 µg/mL)	25 µM (≈ 47 µg/mL)	>200 µM	–	12.5 µM (≈ 23.5 µg/mL)	–	4.5 µM	4.62	4.81	–	–	–	–	–	–	–	–
CC[C@H](C)[C@H](NC(=O)[C@@H](NC(=O)CNC(=O)[C@H](CCSC)NC(=O)[C@H](CC(C)C)NC(=O)CNC(=O)[C@H](CCCCN)NC(=O)[C@H](CC(C)C)NC(=O)[C@@H](N)Cc1ccccc1)C(C)C)C(=O)N[C@H](C)C(=O)N[C@@H](CO)C(=O)N[C@@H](CC(C)C)C(=O)N[C@@H](Cc1ccccc1)C(N)=O [RNST-2 (2), H-Phe^1-Leu^2-Lys^3-Gly^4-Leu^5-Met^6-Gly^7-Val^8-Ile^9-D-Ala^10-Ser^11-Leu^12-Phe^13-NH2] (H-FLKGLMGVI[dA]SLF-NH2)	1.56 µM (≈ 2.18 µg/mL)	3.12 µM (≈ 4.35 µg/mL)	–	50 µM (≈ 69.7 µg/mL)	–	–	200 µM (≈ 279 µg/mL)	–	13.8 µM	–	4.22	15.6 µM (≈ 21.8 µg/mL)	17.9%	62%	0.00%	20.1%	0.00%	50 µM (≈ 69.7 µg/mL)	4.28
CC[C@H](C)[C@H](NC(=O)[C@@H](NC(=O)CNC(=O)[C@H](CCSC)NC(=O)[C@H](CC(C)C)NC(=O)[C@H](CCCCN)NC(=O)[C@H](CCCCN)NC(=O)[C@H](CC(C)C)NC(=O)[C@@H](N)Cc1ccccc1)C(C)C)C(=O)N[C@H](C)C(=O)N[C@@H](CO)C(=O)N[C@@H](CC(C)C)C(=O)N[C@@H](Cc1ccccc1)C(N)=O [RSP-4 (7), H-Phe^1-Leu^2-Lys^3-Lys^4-Leu^5-Met^6-Gly^7-Val^8-Ile^9-D-Ala^10-Ser^11-Leu^12-Phe^13-NH2] (H-FLKKLMGVI[dA]SLF-NH2)	12.5 µM (≈ 18.3 µg/mL)	50 µM (≈ 73.3 µg/mL)	–	50 µM (≈ 73.3 µg/mL)	100 µM (≈ 147 µg/mL)	–	200 µM (≈ 293 µg/mL)	> 100 µM	–	–	4.24	–	22.1%	56.8%	13.6%	0.00%	7.6%	100 µM (≈ 147 µg/mL)	4.40
